Common to all, as to format: cell-based
For test [1], the target named is T1, Tyrosine-protein kinase JAK1 (Homo sapiens, UniProt P23458). Kind of test: Induction of JAK1 degradation in human Jurkat cells at 1 uM incubated for 6 hrs by Western blot analysis. Background: In western blotting, separated proteins are transferred to a membrane and probed.
The target of test [2] is T2, Non-receptor tyrosine-protein kinase TYK2 (Homo sapiens, UniProt P29597). Kind of test: Induction of TYK2 degradation in human Jurkat cells incubated for 24 hrs.
T2 sequence (P29597 whole entry): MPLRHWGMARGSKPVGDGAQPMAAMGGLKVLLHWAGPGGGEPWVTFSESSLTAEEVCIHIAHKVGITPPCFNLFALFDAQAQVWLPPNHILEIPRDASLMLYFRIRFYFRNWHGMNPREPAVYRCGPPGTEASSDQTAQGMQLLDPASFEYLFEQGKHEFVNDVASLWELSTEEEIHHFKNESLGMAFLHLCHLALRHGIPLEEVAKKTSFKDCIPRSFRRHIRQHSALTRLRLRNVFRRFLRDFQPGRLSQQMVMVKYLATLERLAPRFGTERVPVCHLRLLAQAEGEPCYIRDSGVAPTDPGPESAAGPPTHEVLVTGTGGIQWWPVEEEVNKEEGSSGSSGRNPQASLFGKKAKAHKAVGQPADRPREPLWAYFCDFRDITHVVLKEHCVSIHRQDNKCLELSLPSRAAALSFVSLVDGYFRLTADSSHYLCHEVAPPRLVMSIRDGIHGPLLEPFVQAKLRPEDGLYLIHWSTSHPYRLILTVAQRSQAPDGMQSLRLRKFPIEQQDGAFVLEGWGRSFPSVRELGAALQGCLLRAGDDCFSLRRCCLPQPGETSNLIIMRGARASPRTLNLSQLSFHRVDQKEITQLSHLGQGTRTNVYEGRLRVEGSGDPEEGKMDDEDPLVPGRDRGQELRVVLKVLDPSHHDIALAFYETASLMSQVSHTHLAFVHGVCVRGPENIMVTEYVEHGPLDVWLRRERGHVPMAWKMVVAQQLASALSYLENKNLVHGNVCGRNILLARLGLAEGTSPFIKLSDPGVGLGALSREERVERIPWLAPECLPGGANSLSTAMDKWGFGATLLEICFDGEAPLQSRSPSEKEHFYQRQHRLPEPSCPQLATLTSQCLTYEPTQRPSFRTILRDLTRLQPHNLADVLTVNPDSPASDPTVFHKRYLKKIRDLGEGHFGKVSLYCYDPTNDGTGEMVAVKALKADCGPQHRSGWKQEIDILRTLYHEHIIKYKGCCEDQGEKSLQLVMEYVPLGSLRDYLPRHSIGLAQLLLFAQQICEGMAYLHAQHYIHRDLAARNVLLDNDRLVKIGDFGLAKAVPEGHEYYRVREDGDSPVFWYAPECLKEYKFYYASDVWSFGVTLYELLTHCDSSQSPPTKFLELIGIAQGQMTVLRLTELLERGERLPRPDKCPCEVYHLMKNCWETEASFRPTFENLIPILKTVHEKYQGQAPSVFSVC
The target in test [3] is T2, Non-receptor tyrosine-protein kinase TYK2. Kind of test: Induction of TYK2 degradation in human Jurkat cells at 1 uM incubated for 24 hrs relative to control.
Test [4] has as its target T1, Tyrosine-protein kinase JAK1. Kind of test: Induction of JAK1 degradation in human Jurkat cells incubated for 24 hrs.
For test [5] the target is unchanged. Kind of test: Induction of JAK1 degradation in human Jurkat cells at 1 uM incubated for 24 hrs relative to control.
The target in test [6] is Tyrosine-protein kinase JAK2 (Homo sapiens) (UniProt O60674). Briefly: Induction of JAK2 degradation in human Jurkat cells at 1 uM incubated for 6 hrs by Western blot analysis.
Sequence of Tyrosine-protein kinase JAK2 (Homo sapiens) (O60674 whole entry): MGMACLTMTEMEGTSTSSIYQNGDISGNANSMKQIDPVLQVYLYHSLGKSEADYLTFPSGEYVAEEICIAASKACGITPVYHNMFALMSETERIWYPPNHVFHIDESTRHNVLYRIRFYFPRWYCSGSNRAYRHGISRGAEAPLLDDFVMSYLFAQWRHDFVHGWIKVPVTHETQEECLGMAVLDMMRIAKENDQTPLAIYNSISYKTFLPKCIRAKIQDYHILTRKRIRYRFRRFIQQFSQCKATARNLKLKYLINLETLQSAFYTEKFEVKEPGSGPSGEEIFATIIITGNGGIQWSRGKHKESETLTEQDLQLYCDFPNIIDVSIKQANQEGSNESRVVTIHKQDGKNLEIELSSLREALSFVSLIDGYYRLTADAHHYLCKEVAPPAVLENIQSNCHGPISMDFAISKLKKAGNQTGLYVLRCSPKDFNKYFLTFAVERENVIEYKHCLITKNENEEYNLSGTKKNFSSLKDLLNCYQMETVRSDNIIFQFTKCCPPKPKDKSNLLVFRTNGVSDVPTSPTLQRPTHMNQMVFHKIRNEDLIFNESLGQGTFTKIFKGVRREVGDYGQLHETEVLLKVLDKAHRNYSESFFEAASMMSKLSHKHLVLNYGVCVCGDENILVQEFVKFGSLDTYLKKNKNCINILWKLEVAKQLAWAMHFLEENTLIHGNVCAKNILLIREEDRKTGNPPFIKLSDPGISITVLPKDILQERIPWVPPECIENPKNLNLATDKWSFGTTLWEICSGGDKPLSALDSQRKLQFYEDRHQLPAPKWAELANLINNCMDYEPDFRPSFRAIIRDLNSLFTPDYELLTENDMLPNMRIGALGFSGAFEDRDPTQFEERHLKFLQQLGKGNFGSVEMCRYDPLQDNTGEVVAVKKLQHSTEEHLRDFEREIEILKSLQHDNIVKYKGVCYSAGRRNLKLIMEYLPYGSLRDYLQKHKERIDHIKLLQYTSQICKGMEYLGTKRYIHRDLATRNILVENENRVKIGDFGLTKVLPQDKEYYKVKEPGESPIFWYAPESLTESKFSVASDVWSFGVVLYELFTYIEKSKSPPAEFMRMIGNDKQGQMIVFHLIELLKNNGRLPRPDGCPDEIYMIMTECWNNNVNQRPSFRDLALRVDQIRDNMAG
Test [7] addresses T3, Tyrosine-protein kinase JAK3 (Homo sapiens) (UniProt P52333).
T3 sequence (whole entry): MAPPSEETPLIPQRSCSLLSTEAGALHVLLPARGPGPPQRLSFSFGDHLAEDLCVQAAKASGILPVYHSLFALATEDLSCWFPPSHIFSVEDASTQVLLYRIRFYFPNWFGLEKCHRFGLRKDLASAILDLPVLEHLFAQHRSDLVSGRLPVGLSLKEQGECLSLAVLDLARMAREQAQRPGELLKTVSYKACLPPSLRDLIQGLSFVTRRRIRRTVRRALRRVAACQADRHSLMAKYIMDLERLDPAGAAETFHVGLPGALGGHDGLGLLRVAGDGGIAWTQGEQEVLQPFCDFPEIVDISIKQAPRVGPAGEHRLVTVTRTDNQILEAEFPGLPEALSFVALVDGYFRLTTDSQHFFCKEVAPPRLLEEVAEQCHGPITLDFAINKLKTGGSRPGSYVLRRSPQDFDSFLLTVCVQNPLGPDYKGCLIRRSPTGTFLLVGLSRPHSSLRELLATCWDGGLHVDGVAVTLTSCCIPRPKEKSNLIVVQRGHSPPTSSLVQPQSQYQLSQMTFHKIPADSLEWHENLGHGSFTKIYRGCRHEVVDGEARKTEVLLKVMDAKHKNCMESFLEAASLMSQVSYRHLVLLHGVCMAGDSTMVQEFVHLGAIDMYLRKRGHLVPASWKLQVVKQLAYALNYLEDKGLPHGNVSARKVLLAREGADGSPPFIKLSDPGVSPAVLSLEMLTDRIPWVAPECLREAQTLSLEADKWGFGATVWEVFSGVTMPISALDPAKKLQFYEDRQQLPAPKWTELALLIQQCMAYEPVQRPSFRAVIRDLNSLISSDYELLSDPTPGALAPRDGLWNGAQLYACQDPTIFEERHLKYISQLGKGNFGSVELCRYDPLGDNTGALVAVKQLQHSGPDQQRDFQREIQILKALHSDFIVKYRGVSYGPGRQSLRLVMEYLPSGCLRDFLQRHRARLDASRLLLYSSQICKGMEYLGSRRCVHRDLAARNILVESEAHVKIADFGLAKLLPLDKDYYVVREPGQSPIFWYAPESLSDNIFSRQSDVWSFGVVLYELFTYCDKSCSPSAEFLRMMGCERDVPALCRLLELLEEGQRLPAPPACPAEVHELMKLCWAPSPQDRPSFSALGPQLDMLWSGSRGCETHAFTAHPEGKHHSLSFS
Kind of test: Induction of JAK3 degradation in human Jurkat cells at 1 uM incubated for 6 hrs by Western blot analysis.

The target of test [8] is T2, Non-receptor tyrosine-protein kinase TYK2. Briefly: Induction of TYK2 degradation in human Jurkat cells at 1 uM incubated for 6 hrs by Western blot analysis.
For test [9] the target is unchanged. Kind of test: Induction of TYK2 degradation in human Jurkat cells incubated for 24 hrs by Western blot analysis.
Test [10] has the same target. Kind of test: Induction of TYK2 degradation in human Jurkat cells at 10 uM incubated for 24 hrs by Western blot analysis relative to control.
For test [11] the target is unchanged. Briefly: Induction of TYK2 degradation in human Jurkat cells at 1 uM by Western blot analysis. Particulars: time 3-24 hrs, TDE = time-dependent effect.
For test [12] the target is unchanged. Briefly: Induction of TYK2 degradation in human Jurkat cells assessed as reduction in TYK2 mRNA expression level up to 10 uM incubated for 6 to 24 hrs by quantitative-PCR analysis. Particulars: time 6-24 hrs.
For test [13] the target is unchanged. Kind of test: Induction of TYK2 degradation in human Jurkat cells at 1 uM incubated for 24 hrs in presence of 6-(5-fluoropyridin-2-ylamino)-4-(2-methoxy-3-(methylcarbamoyl)phenylamino)-N-methylnicotinamide by Western blot analysis.
Test [14] shares this target. Briefly: Induction of TYK2 degradation in human Jurkat cells at 1 to 10 uM pretreated with MG-132 followed by compound treatment for 24 hrs by Western blot analysis. Particulars: dose 1-10 µM.
Test [15] has the same target. Briefly: Induction of TYK2 degradation in human Jurkat cells at 100 nM incubated for 24 hrs relative to control.
In test [16] the target is T1, Tyrosine-protein kinase JAK1. Kind of test: Induction of JAK1 degradation in human Jurkat cells at 10 uM incubated for 24 hrs relative to control.
The target in test [17] is T2, Non-receptor tyrosine-protein kinase TYK2. Kind of test: Induction of TYK2 degradation in human Jurkat cells at 10 uM incubated for 24 hrs by Western blot analysis.

Calls of active or inactive are those of the source. The rule behind the calls is not given here.

T1 sequence (P23458 whole entry): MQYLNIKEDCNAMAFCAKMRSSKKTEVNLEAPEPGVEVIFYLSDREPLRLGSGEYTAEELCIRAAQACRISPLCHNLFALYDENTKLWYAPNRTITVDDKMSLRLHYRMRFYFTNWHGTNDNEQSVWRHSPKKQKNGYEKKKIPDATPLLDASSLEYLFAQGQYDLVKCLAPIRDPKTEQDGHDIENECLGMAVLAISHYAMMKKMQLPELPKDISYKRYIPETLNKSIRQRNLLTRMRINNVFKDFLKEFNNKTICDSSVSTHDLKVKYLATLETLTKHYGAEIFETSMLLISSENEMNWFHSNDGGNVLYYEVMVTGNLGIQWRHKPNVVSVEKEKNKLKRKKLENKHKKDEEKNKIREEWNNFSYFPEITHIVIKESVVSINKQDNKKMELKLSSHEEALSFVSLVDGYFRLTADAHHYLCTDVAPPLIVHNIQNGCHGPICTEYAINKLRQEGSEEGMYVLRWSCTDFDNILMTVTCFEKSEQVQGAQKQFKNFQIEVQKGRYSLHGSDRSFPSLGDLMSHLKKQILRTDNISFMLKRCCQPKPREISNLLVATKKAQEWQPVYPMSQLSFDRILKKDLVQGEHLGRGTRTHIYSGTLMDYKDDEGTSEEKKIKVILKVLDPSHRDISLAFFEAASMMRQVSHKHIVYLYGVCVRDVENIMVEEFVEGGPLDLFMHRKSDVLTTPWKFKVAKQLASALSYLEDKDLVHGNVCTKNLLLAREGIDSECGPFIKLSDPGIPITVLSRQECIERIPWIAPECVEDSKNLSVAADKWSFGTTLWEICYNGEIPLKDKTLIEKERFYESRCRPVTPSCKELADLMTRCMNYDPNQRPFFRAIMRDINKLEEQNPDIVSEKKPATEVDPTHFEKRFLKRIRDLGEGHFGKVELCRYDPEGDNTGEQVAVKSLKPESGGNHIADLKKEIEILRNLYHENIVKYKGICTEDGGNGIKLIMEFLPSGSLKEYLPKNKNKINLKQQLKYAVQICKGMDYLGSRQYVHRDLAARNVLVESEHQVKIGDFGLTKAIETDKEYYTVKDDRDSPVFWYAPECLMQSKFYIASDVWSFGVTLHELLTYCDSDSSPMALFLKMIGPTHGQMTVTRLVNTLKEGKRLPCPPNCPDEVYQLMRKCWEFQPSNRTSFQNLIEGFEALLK

Usually DC50 stands for the midpoint of the concentration-degradation curve. Low readings indicate a more potent degrader, high ones a less potent degrader. By Emax is commonly meant the greatest response seen or fitted, relative to the assay's reference. Regarding `CNC(=O)c1cccc(Nc2cc(Nc3ccc(C(=O)NCCCCCCCCCC(=O)N[C@H](C(=O)N4C[C@H](O)C[C@H]4C(=O)NCc4ccc(-c5scnc5C)cc4)C(C)(C)C)cn3)ncc2C(N)=O)c1OC`, the outcome in [1] was Active. For the same compound, the results for the DC50 in test [2] and in test [4] were 23 nM and 1100 nM, respectively. Moreover, the Emax is 85% in test [3] and 49% in [5].
Turning to `CNC(=O)c1cnc(Nc2ccc(C(=O)NCCCCCCCCC(=O)N[C@H](C(=O)N3C[C@H](O)C[C@H]3C(=O)NCc3ccc(-c4scnc4C)cc3)C(C)(C)C)cn2)cc1Nc1cccc(C(=O)NC)c1OC`, the result in test [1], in [6] and in test [7] was inactive.
Turning to `CNC(=O)c1cnc(Nc2ccc(C(=O)NCCCCCCCC(=O)N[C@H](C(=O)N3C[C@H](O)C[C@H]3C(=O)NCc3ccc(-c4scnc4C)cc3)C(C)(C)C)cn2)cc1Nc1cccc(C(=O)NC)c1OC`, the outcome in test [1], in [6] and in test [7] was inactive.
Consider `CNC(=O)c1cnc(Nc2ccc(C(=O)NCCCCCCCCCCCC(=O)N[C@H](C(=O)N3C[C@H](O)C[C@H]3C(=O)NCc3ccc(-c4scnc4C)cc3)C(C)(C)C)cn2)cc1Nc1cccc(C(=O)NC)c1OC`, for which the outcome in test [1], in test [6] and in [7] was inactive.
`CNC(=O)c1cnc(Nc2ccc(C(=O)NCCCCCCCCCCC(=O)N[C@H](C(=O)N3C[C@H](O)C[C@H]3C(=O)NCc3ccc(-c4scnc4C)cc3)C(C)(C)C)cn2)cc1Nc1cccc(C(=O)NC)c1OC`: the outcome in test [1], in [6] and in test [7] was inactive.
For `CNC(=O)c1cnc(Nc2ccc(C(=O)NCCCCCCCCCC(=O)N[C@H](C(=O)N3C[C@H](O)C[C@H]3C(=O)NCc3ccc(-c4scnc4C)cc3)C(C)(C)C)cn2)cc1Nc1cccc(C(=O)NC)c1OC`, the outcome in test [8], in [13] and in test [14] was Active. The outcome in test [1], in test [6], in [7] and in [12] was inactive. For the same compound, it took 230 nM to reach half-maximal degradation in test [9] (DC50). The Emax in [10] turned out to be 77%. Also, the Activity result in test [11] was “Tde”.
With `CNC(=O)c1cnc(Nc2ccc(C(=O)NCCCCCCCCCC(=O)N[C@H](C(=O)N3C[C@H](O)C[C@H]3C(=O)NCc3ccc(-c4scnc4C)cc3)C(C)(C)C)cn2)cc1Nc1cccc(-c2ncn(C)n2)c1OC`, the outcome in test [6] was Active. The DC50 is 14 nM in test [2] and no less than 10000 nM in test [4]. The Emax worked out at 78% in [15] and 25% in [16].
Regarding `Cc1ncsc1-c1ccc(CNC(=O)[C@@H]2C[C@@H](O)CN2C(=O)[C@@H](NC(=O)C2(C#N)CC2)C(C)(C)C)cc1`, in [13], the outcome was inactive. In test [17], the outcome was Active.
As for `CNC(=O)c1cnc(Nc2ccc(C(=O)NCCCCCC(=O)N[C@H](C(=O)N3C[C@H](O)C[C@H]3C(=O)NCc3ccc(-c4scnc4C)cc3)C(C)(C)C)cn2)cc1Nc1cccc(C(=O)NC)c1OC`, the outcome in test [1], in [6] and in [7] was inactive.
On to `CNC(=O)c1cnc(Nc2ccc(C(=O)NCCCC(=O)N[C@H](C(=O)N3C[C@H](O)C[C@H]3C(=O)NCc3ccc(-c4scnc4C)cc3)C(C)(C)C)cn2)cc1Nc1cccc(C(=O)NC)c1OC`, for which the result in test [1], in test [6] and in [7] was Active.
For the compound `CNC(=O)c1cnc(Nc2ccc(F)cn2)cc1Nc1cccc(C(=O)NC)c1OC`, in test [17], the result was Active.
